Tests used:
[1] = biological target: T1, hormone sensitive lipase, HSL (Rattus norvegicus, UniProt P15304); test: HSL inhibition assay; assay type: biochemical; settings: partially purified HSL from rat fat cells; [3H]trioleoylglycerol substrate; 37° C. for 30 min
T1 construct: Isolated rat fat cells are obtained from epididymal adipose tissue; from tissue; host or cells: fat cells from epididymal adipose tissue of male Wistar rats
T1 sequence (P15304 301-1068 limits assumed): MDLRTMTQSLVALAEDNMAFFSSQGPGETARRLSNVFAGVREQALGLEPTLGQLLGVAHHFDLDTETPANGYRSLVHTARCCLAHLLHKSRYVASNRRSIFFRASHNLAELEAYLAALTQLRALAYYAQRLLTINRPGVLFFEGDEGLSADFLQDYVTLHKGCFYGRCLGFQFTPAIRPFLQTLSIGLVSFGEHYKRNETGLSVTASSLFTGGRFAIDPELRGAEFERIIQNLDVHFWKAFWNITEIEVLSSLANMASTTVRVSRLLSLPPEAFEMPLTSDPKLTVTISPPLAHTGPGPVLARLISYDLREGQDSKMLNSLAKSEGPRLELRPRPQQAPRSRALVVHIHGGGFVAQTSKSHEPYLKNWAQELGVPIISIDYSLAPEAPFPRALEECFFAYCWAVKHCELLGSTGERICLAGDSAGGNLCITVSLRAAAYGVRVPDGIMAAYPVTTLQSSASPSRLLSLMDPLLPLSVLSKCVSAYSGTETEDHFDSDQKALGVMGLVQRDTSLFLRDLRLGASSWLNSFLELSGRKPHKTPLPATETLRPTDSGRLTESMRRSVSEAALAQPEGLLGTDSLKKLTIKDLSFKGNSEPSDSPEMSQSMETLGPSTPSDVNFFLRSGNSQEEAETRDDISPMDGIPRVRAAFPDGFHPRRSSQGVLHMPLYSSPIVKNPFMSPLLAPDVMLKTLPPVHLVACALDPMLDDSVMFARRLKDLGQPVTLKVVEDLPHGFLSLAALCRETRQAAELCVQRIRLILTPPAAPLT
Procedure: Preparation of the Partially Purified HSL:
Isolated rat fat cells are obtained from epididymal adipose tissue from untreated male rats (Wistar, 220-250 g) by collagenase treatment in accordance with published methods (e.g. S, Nilsson et al., Anal. Biochem. 158, 1986, 399-407; G. Fredrikson et al., J. Biol. Chem. 256, 1981, 6311-6320; H. Tornquist et al., J. Biol. Chem. 251, 1976, 813-819). The fat cells from 10 rats are washed three times by flotation with 50 ml of homogenization buffer ([…] Tris/HCl, pH 7.4, 0.25 M sucrose, 1 mM ETDA, 1 mM DTT, 10 μg/ml leupeptin, 10 μg/ml antipain, 20 μg/ml pepstatin) each time and finally taken up in 10 ml of homogenization buffer. The fat cells are homogenized in a Teflon-in-glass homogenizer (Braun-Melsungen) by 10 strokes at 1500 rpm and 15° C. The homogenate is centrifuged (Sorvall SM24 tubes, 5000 rpm, 10 min, 4° C.). The subnatant between the layer of fat at the top and the pellet is removed and the centrifugation is repeated. The subnatant resulting therefrom is centrifuged again (Sorvall SM24 tubes, 20 000 rpm, 45 min, 4° C.). […] After incubation at 4° C. for 60 min (shaking at intervals of 15 min), the mixture is centrifuged (Sorvall SM24 tubes, 3000 rpm, 10 min, 4° C.). The supernatant is adjusted to pH 5.2 by adding glacial acetic acid and is incubated at 4° C. for 30 min. The precipitates are collected by centrifugation (Sorvall SS34, 12 000 rpm, 10 min, 4° C.) and suspended in 2.5 ml of 20 mM Tris/HCl, pH 7.0, 1 mM EDTA, 65 mM NaCl, 13% sucrose, 1 mM DTT, 10 μg/ml leupeptin/pepstatin/antipain. The suspension is dialyzed against 25 mM Tris/HCl, pH 7.4, 50% glycerol, 1 mM DTT, 10 μg/ml leupeptin, pepstatin, antipain at 4° C. overnight and then loaded onto a hydroxiapatite column (0.1 g per 1 ml of suspension, equilibrated with 10 mM potassium phosphate, pH 7.0, 30% glycerol, 1 mM DTT). The column is washed with four volumes of equilibration buffer at a flow rate of 20 to 30 ml/h. The HSL is eluted with one volume of equilibration buffer containing 0.5 M potassium phosphate and then dialyzed (see above) and concentrated 5- to 10-fold by ultrafiltration (Amicon Diaflo PM 10 Filter) at 4° C. The partially purified HSL can be stored at −70° C. for 4 to 6 weeks.
To prepare the substrate, 25-50 μCi of [3H]trioleoylglycerol (in toluene), 6.8 μmol of unlabeled trioleoylglycerol and 0.6 mg of phospholipids (phosphatidylcholine/phosphatidylinositol 3:1 w/v) are mixed, dried with N2 and then taken up in 2 ml of 0.1 M KPi (pH 7.0) by ultrasound treatment (Branson 250, microtip, setting 1-2, 2×1 min with an interval of 1 min). After addition of 1 ml of KPi and renewed ultrasound treatment (4×30 sec on ice with intervals of 30 sec), 1 ml of 20% BSA (in KPi) is added (final concentration of trioleoylglycerol 1.7 mM). For the reaction, 100 μl of substrate solution are pipetted into 100 μl of HSL solution (HSL prepared as above, diluted in 20 mM KPi, pH 7.0, 1 mM EDTA, 1 mM DTT, 0.02% BSA, 20 μg/ml pepstatin, 10 μg/ml leupeptin) and incubated at 37° C. for 30 min. Addition of 3.25 ml of methanol/chloroform/heptane (10:9:7) and of 1.05 ml of 0.1 M K2CO3, 0.1 M boric acid (pH 10.5) is followed by thorough mixing and finally centrifugation (800×g, 20 min). After phase separation, one equivalent of the upper phase (1 ml) is removed and the radioactivity is determined by liquid scintillation measurement.
Substances are normally tested in four independent mixtures. The inhibition of the HSL enzymatic activity by a test substance is determined by comparing with an uninhibited control reaction. The IC50 is calculated from an inhibition plot with at least 10 concentrations of the test substance. The GRAPHIT, Elsevier-BIOSOFT software package is used to analyze the data.

endothelial lipase (EL) = biological target: T2, endothelial lipase (EL) (Homo sapiens, UniProt Q9Y5X9); test: EL inhibition assay; assay type: biochemical; settings: EL from conditioned medium of recombinant cell lines (CHO, HEK293); Bodipy phospholipid substrate; 37° C. for 60 minutes
T2 construct: made in house; host or cells: recombinant CHO or HEK293 cell lines; concentrated conditioned medium
T2 sequence (Q9Y5X9 21-500): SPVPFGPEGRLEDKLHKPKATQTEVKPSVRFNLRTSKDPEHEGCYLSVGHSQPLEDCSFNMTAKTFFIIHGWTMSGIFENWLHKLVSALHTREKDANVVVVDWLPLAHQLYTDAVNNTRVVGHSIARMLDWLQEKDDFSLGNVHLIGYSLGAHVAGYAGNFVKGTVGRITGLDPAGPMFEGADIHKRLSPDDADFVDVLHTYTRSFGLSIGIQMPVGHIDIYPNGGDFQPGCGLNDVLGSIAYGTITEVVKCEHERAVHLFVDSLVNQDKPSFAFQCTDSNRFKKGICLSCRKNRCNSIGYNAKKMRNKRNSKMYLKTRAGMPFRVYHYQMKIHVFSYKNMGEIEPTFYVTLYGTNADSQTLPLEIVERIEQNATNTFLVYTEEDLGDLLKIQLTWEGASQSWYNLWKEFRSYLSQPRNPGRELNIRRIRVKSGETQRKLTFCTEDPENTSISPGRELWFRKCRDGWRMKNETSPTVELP
Description: EL is released as secretory protein in high concentration into cell culture medium (conditioned medium) by recombinant cell lines (CHO, HEK293). This is employed as enzyme solution after concentration.
The phospholipase-specific substrate 1,2-bis(4,4-difluoro-5,7-dimethyl-4-bora-3a,4a-diaza-s-indacene-3-undecanoyl)-sn-glycero-3-phosphocholine, (manufacturer Molecular Probes) is used to characterize the enzymatic activity of endothelial lipase and the effect of inhibitors. Hydrolysis of the A1 ester linkage of this phospholipid by the enzyme liberates the fluorescent dye Bodipy which can be detected after separation by thin-layer chromatography on an HPTLC plate (silica gel 60, Merck) or directly in the reaction vessel by measuring the fluorescence. The substrate solution is prepared by taking up 100 μg of 1,2-bis(4,4-difluoro-5,7-dimethyl-4-bora-3a,4a-diaza-s-indacene-3-undecanoyl)-sn-glycero-3-phospho-choline (manufacturer Molecular Probes), 2.4 mg of tripalmitin (Sigma) and 7.9 mg of DOP-choline (1,2-dioleoyl-sn-glycero-3-phosphocholine) in 393 μl of chloroform and then transferring 157 μl into a fresh reaction vessel. After evaporation of the solvent, the lipid mixture is dissolved in 4 ml of 200 mM TRIS-HCl, 150 mM sodium chloride, pH=7.4, by sonication twice. The subsequent enzymic reaction takes place at 37° C. for 60 minutes. For this purpose, 45 μl of the substrate solution are incubated with 1 μl of inhibitor of appropriate concentration (dissolved in DMSO, pure DMSO solution is used as control) and 5 μl of enzyme solution (conditioned medium). Then 3 μl of the assay mixture are loaded onto an HPTLC plate (silica gel 60, Merck), and the liberated fluorescent dye is separated for detection with an eluent (diethyl ether:petroleum benzene:acetic acid [78:22:1]). After evaporation of the eluent, the plate is read in a fluorescence scanner. An increased release of the fluorescent dye in the uninhibited reaction is to be observed as a measure of the enzymic activity.
The enzymatic activity is reduced as a function of the inhibitor concentration used, and the inhibitor concentration at which a half-maximum enzymic activity is observed is called IC50.

IC50 [1]	IC50 (endothelial lipase (EL))	SMILES
0.5 µM		CC1CCN(C(=O)n2nnc3nc(Cl)ccc32)CC1 [Example 1, (5-Chloro-[1,2,3]triazolo[4,5-b]pyridin-1-yl)-(4-methylpiperidin-1-yl)-methanone]
0.07 µM		O=C(N1CCc2ccccc2C1)n1nnc2ncccc21 [Example 4]
0.3 µM		CC1CCN(C(=O)n2nnc3ncc(Cl)cc32)CC1 [Example 5, (6-Chloro-[1,2,3]triazolo[4,5-b]pyridin-1-yl)-(4-methyl-piperidin-1-yl)-methanone]
0.607 µM		Cc1cccc(C)c1N1CCN(C(=O)n2nnc3ncccc32)CC1 [Example 14]
0.45 µM		COC(=O)c1ccc(C2CCN(C(=O)n3nnc4ncccc43)CC2)cc1 [Example 23]
0.175 µM		CCCCCN(CCCCC)C(=O)n1nnc2ncccc21 [Example 24]
0.215 µM		Cc1ccccc1N1CCN(C(=O)n2nnc3ncccc32)CC1 [Example 25]
0.198 µM		O=C(N1CCN(c2ccc(-c3ccccc3)cc2)CC1)n1nnc2ncccc21 [Example 26]
0.585 µM		CC1CC(C)CN(C(=O)n2nnc3ncccc32)C1 (centres unmarked) [Example 30]
0.136 µM		CCCC1CCN(C(=O)n2nnc3ncccc32)CC1 [Example 31]
0.112 µM		O=C(N1CCC(c2ccc3ccccc3c2)CC1)n1nnc2ncccc21 [Example 33]
0.78 µM		O=C(C1CCC2(CC1)CCN(c1ccccc1)C2=O)n1nnc2ncccc21 (centres unmarked) [Example 35]
0.576 µM		CCOc1ccc(N2CCN(C(=O)n3nnc4ncccc43)CC2)cc1 [Example 37]
0.062 µM		O=C(N1CCN(c2ccc(OCc3ccccc3)cc2)CC1)n1nnc2ncccc21 [Example 41]
0.159 µM		Nc1ccc(C2CCN(C(=O)n3nnc4ncccc43)CC2)cc1 [Example 42]
0.763 µM		O=C(N1CCC(c2ccccc2F)CC1)n1nnc2ncccc21 [Example 43]
0.662 µM		O=C(N1CCC(CCc2ccccc2)CC1)n1nnc2ncccc21 [Example 48]
0.367 µM		CC1(C)CCCN(C(=O)n2nnc3ncccc32)C1 [Example 50]
0.237 µM		CCCCCCCCN1CCN(C(=O)n2nnc3ncccc32)CC1 [Example 51]
0.826 µM		O=C(N1CCC(c2cccc(C(F)(F)F)c2)CC1)n1nnc2ncccc21 [Example 53]
	0.74 µM	Cc1ccccc1CNC(=O)n1nnc2nc(Cl)ccc21 [Example 54]
	0.58 µM	Cc1ccccc1CNC(=O)n1nnc2ncc(Cl)cc21 [Example 55]
	0.04 µM	CCCCCCNC(=O)n1nnc2nc(Cl)ccc21 [Example 56]
0.03 µM		CC1CCN(C(=O)n2nnc3ccc(Cl)nc32)CC1 [Example 61, (5-chloro-[1,2,3]triazolo[4,5-b]pyridin-3-yl)-(4-methylpiperidin-1-yl)-methanone]
0.16 µM		CC1CCN(C(=O)n2nnc3cccnc32)CC1 [Example 62]
0.965 µM		CC1CCCN(C(=O)n2nnc3cccnc32)C1 (centres unmarked) [Example 63]
0.03 µM		O=C(N1CCc2ccccc2C1)n1nnc2cccnc21 [Example 64]
0.15 µM		O=C(N1CCc2ccccc2C1)n1nnc2ccc(Cl)nc21 [Example 66, (5-chloro-[1,2,3]triazolo[4,5-b]pyridin-3-yl)-(3,4-dihydro-1H-isoquinolin-2-yl)-methanone]
	1.24 µM	Cc1ccccc1CNC(=O)n1nnc2cc(Cl)cnc21 [Example 68]

From patent US7718669B2, “Triazolopyridine derivatives as inhibitors of lipases and phospholipases” (Sanofi-Aventis, priority 2005, dated 2010)
